# Patent publication US20080132554A1, “CRYSTAL FORM OF 2-(3-FLUORO-4-HYDROXYPHENYL)-7-VINYL-1,3-BENZOXAZOL-5-OL” (WYETH, priority 2006, published 2008)
# Assay: Conversion of the crystal form when suspended and stirred in solvent
# Format: physicochemical
# Details: room temperature, seven days
# From the text: The anhydrate crystal form (Form D) can be converted to other crystal forms under suitable conditions.
smiles,measurement,setting,value
"C=Cc1cc(O)cc2nc(-c3ccc(O)c(F)c3)oc12 [Form D, 2-(3-fluoro-4-hydroxyphenyl)-7-vinyl-1,3-benzoxazol-5-ol]",crystal form conversion after suspension and stirring,in acetone,another anhydrate crystal form is obtained
same,crystal form conversion after suspension and stirring,in ethanol,another anhydrate crystal form is obtained
same,crystal form conversion after suspension and stirring,in methanol,another anhydrate crystal form is obtained
same,crystal form conversion after suspension and stirring,in water,most of the anhydrate crystal form is converted to a hydrate crystal form
